Laboratory results as given in US7166609B2, “Pyrimidine-4,6-dicarboxylic acid diamides for selectively inhibiting collagenases” (Sanofi-Aventis Deutschland GmbH, priority 2002, dated 2007).

Target: T1, catalytic domain of human collagenase 3 (MMP-13) (Homo sapiens, UniProt P45452)
T1 construct: Determining the enzyme activity of the catalytic domain of human collagenase 3 (MMP-13); purchased INVITEK, Berlin 30 100 803
Assay: Enzyme activity of the catalytic domain of human collagenase 3 (MMP-13), fluorogenic substrate
Type: biochemical
Details: catalytic domain, activated proenzyme, pH 7.5; read-out: IC50 MMP13
Protocol: Determining the enzyme activity of the catalytic domain of human collagenase 3 (MMP-13).
Activating the proenzyme:
2 parts by volume of proenzyme are incubated with 1 part by volume of APMA solution at 37° C. for 1.5 hours. The APMA solution is prepared from a 10 mmol/L solution of p-aminophenylmercuric acetate in 0.1 mmol/L NaOH by diluting with 3 parts by volume of tris/HCl buffer, pH 7.5 (see below). The pH is adjusted to between 7.0 and 7.5 by adding 1 mmol/L HCl. After the enzyme has been activated, it is diluted to a concentration of 1.67 μg/ml using the tris/HCl buffer.
In order to measure the enzyme activity, 10 μL of enzyme solution are incubated for 15 minutes with 10 μL of a 3% (v/v) buffered solution of dimethyl sulfoxide (reaction 1). In order to measure the enzyme inhibitor activity, 10 μL of enzyme solution are incubated with 10 μL of a 3% (v/v) buffered solution of dimethyl sulfoxide containing the enzyme inhibitor (reaction 2).
In the case of both reaction 1 and reaction 2, the enzyme reaction is monitored by fluorescence spectroscopy (328 nm (extinction)/393 nm (emission)) after adding 10 μL of a 3% (v/v) aqueous solution of dimethyl sulfoxide containing 0.75 mmol of the substrate/L.
The enzyme activity is depicted as increase in extinction/minute.
The effect of the inhibitor is calculated as a percentage inhibition using the following formula: % inhibition=100−[(increase in extinction/minute in reaction 2)/(increase in extinction/minute in reaction 1)×100].
The IC50, i.e. the inhibitor concentration which is required for inhibiting the enzyme activity by 50%, is determined graphically by plotting the percentage inhibitions at different inhibitor concentrations.
The buffer solution contains 0.05% Brij (Sigma, Deisenhofen, Germany) and 0.1 mol of tris/HCl/L, 0.1 mol of NaCl/L and 0.01 mol of CaCl2/L (pH=7.5). The enzyme solution contains 1.67 μg of the enzyme domain/mL.
The substrate solution contains 0.75 mmol/L of the fluorogenic substrate (7-methoxycoumarin-4-yl)acetyl-Pro-Leu-Gly-Leu-3-(2′,4′-dinitrophenyl)-L-2,3-diaminopropionyl-Ala-Arg-NH2 (Bachem, Heidelberg, Germany).

Compound	IC50 [nM]
Cc1cc(CNC(=O)c2cc(C(=O)NCc3ccc(C(=O)NO)cc3)ncn2)ccc1F [Example 93]	20
N#CNC(=O)c1ccc(CNC(=O)c2cc(C(=O)NCc3ccc4c(c3)CCO4)ncn2)cc1 [Example 85]	3.5
COc1cccc(CNC(=O)c2cc(C(=O)NCc3ccc(C(=O)N4CCSCC4)cc3)ncn2)c1 [Example 71]	9
O=C(NCc1ccncc1)c1cc(C(=O)NCc2ccc3c(c2)CCO3)ncn1 [Example 4, Pyrimidine-4,6-dicarboxylic acid4-[(2,3-dihydrobenzofuran-5-ylmethyl)amide] 6-[(pyridin-4-ylmethyl)amide]]	20
CCN(CC)C(=O)c1ccc(CNC(=O)c2cc(C(=O)NCc3cccc(OC)c3)ncn2)cc1 [Example 3, Pyrimidine-4,6-dicarboxylic acid 4-(4-diethylcarbamoylbenzylamide) 6-(3-methoxybenzylamide)]	4
O=C(NCc1cccnc1)c1cc(C(=O)NCc2ccc3c(c2)OCCO3)ncn1 [Example 44]	200
COc1cccc(CNC(=O)c2cc(C(=O)NCc3ccc(NC(=O)NC(=O)C4CCCCC4)cc3)ncn2)c1 [Example 125]	4
COc1cccc(CNC(=O)c2cc(C(=O)NCc3ccc(NC(=O)Nc4cc(Cl)nc(Cl)c4)cc3)ncn2)c1 [Example 137]	40
COC(=O)CNC(=O)c1ccc(CNC(=O)c2cc(C(=O)NCc3ccc(F)c(C)c3)ncn2)cc1 [Example 106]	40
COc1cccc(CNC(=O)c2cc(C(=O)NCc3ccc(C(=O)NC#N)cc3)ncn2)c1 [Example 86]	2.5
COc1cccc(CNC(=O)c2cc(C(=O)NCc3cccc(NC(=O)NS(C)(=O)=O)c3)ncn2)c1 [Example 88]	33
